Results reported in ChEMBL document CHEMBL1201862, “PubChem BioAssay data set” (2004).
Activity calls are given as the source filed them.

Tests used:
[1] = biological target: Fructose-bisphosphate aldolase (Mycobacterium tuberculosis, UniProt P9WQA3); experiment: Fluorescence-based biochemical high throughput dose response assay for inhibitors of the fructose-bisphosphate aldolase (FBA) of M. tuberculosis.; assay type: functional
[2] = potency of ADAM10 substrate cleavage blockers – biochemical, QFRET, dose response (AID 743254);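 further: ADAM10 enzyme with the DM2 quenched FRET peptide as substrate; EDANS fluorescence gain as the protease cuts the substrate; inhibitor potency against ADAM10 proteolytic activity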
[3] = biological target: Disintegrin and metalloproteinase domain-containing protein 17 (Homo sapiens, UniProt P78536); experiment: inhibition of ADAM17 substrate cleavage – biochemical, quenched FRET substrate, counter-screen for ADAM10 exosite inhibitor project, dose response (AID 743253)
Sequence of Disintegrin and metalloproteinase domain-containing protein 17 (P78536 whole entry, the tested form may be a part): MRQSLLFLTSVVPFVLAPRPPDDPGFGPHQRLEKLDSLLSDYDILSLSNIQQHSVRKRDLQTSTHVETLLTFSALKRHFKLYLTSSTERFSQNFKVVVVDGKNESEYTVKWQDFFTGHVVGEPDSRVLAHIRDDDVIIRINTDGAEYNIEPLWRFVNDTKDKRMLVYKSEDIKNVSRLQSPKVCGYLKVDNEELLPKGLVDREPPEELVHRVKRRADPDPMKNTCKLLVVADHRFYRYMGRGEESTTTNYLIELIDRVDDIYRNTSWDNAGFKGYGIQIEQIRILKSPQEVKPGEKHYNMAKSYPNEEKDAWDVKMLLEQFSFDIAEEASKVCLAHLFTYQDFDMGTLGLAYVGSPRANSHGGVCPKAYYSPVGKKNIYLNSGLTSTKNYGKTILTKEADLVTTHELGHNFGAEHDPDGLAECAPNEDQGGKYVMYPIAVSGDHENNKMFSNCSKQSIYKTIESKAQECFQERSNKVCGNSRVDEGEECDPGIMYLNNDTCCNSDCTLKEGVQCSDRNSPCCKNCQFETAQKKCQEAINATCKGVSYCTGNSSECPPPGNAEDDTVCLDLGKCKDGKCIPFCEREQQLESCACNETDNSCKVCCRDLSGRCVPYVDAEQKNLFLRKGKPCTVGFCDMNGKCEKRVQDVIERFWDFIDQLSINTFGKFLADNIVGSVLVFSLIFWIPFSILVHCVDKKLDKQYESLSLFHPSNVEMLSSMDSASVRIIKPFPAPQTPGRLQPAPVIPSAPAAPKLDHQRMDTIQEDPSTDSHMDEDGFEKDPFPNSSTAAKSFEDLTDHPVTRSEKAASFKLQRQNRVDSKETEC

[4] = A549 cell cytotoxicity, dose response, cytotoxicity control, plate reader, cherry-pick, antagonist series (AID 743412); assay type: functional, cell-based
[5] = toxicity toward HepG2 liver cells – cell-based, plate reader, cherry-pick, antagonist series, cytotoxicity control, dose response (AID 743416); assay type: functional
[6] = blockers of bursicon-stimulated LGR2 cAMP reporter – cell-based, HEK293, CRE-luciferase reporter, cherry pick, set 2, dose response (AID 743343); assay type: functional;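 further: transfected cells were stimulated with diluted bursicon conditioned medium after compound addition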
[7] = test system: HeLa; experiment: viability loss in HeLa cells – cell-based, ATP luminescence, cherry-pick samples, cytotoxicity control, dose response (AID 687004); assay type: functional; conditions: Homo sapiens
[8] = test system: HEK293; experiment: viability loss in HEK293T cells – cell-based, ATP luminescence, cherry-pick samples, cytotoxicity control, dose response (AID 687005); assay type: functional; conditions: Homo sapiens;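 further: cells exposed to compound for 48 hours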
[9] = HEK293 Cytotoxicity Assay Measured in Cell-Based System Using Plate Reader - 7071-01_Inhibitor_Dose_CherryPick_Activity_Set2.; assay type: functional
[10] = biological target: T1, Scavenger receptor class B member 1 (Mus musculus, UniProt Q61009); experiment: blockers of DiI-HDL lipid transfer via SR-BI – cell-based, ldlA[mSR-BI] CHO, DiI fluorescence, dry powder, set 10, dose response (AID 624029); assay type: functional
T1 sequence (Q61009 whole entry): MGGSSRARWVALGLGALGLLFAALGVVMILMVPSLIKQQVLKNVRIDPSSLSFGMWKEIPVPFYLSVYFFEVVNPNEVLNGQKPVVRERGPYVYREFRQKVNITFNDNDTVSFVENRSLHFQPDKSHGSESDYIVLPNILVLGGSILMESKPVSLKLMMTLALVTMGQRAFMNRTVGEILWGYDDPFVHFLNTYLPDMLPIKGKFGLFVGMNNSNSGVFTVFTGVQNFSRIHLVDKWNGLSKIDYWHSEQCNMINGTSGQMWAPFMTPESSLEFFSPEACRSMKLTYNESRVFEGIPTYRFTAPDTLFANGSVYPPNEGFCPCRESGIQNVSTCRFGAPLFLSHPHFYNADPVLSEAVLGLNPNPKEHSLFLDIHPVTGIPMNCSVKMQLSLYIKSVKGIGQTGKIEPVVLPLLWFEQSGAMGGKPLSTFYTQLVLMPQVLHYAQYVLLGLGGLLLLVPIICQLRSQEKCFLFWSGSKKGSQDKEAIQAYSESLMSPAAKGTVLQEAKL

[11] = biological target: T1, Scavenger receptor class B member 1; experiment: mouse SR-BI DiI-HDL transfer blockers – ldlA[mSR-BI] CHO cells, fluorescence plate reader, dry powder, set 9, dose response (AID 623880); assay type: functional, cell-based
[12] = cells; assay type: functional, cell-based
[13] = biological target: T2, Trace amine-associated receptor 1 (Homo sapiens, UniProt Q96RJ0); experiment: Fluorescence-based cell-based high throughput dose response assay to identify agonists of the human trace amine associated receptor 1 (TAAR1).; assay type: functional
T2 sequence (Q96RJ0 whole entry): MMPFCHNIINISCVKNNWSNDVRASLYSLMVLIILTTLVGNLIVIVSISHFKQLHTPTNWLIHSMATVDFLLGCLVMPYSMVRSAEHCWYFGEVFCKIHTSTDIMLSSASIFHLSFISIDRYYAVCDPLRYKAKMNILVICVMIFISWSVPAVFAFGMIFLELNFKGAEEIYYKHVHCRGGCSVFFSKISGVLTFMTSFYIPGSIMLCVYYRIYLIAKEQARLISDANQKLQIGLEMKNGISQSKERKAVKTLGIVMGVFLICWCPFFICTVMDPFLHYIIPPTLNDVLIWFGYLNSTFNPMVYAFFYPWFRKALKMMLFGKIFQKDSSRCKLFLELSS

[14] = biological target: T2, Trace amine-associated receptor 1; experiment: Counterscreen for agonists of the human trace amine associated receptor 1 (hTAAR1): Fluorescence-based cell-based high throughput dose response assay to identify hTAAR1 agonist that also desensitize TAAR1 receptor response.; assay type: functional
[15] = cells; assay type: functional, cell-based; remark: listed apart in the source
[16] = OVCAR8 cell viability loss – plate reader, dry powder samples, PAX8 project, dose response (AID 743197); assay type: functional, cell-based; conditions: OVCAR-8
[17] = biological target: Paired box protein Pax-8 (Homo sapiens, UniProt Q06710); experiment: PAX8 transcriptional activity inhibition in RMG-I – RMG-I cells, luciferase, cherry-pick, dose response (AID 687027); assay type: functional, cell-based;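 further: luciferase reporter driven by Pax8 target thyroperoxidase promoter measured by SteadyGlo luminescence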
Sequence of Paired box protein Pax-8 (Q06710 whole entry): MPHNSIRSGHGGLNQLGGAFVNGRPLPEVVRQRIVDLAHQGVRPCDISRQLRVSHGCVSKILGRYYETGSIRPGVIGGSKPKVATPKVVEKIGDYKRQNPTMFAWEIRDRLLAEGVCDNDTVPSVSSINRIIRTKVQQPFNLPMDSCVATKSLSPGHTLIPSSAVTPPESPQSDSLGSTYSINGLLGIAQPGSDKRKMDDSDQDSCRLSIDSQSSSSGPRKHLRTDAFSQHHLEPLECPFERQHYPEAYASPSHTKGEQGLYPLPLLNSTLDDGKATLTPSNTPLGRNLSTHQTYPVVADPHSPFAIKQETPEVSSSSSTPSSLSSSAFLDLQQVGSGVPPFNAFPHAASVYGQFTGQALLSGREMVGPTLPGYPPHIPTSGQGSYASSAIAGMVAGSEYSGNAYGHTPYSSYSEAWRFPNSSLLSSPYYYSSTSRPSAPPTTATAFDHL

[18] = IGROV1 cell killing – plate reader, dry powder samples, PAX8 inhibitor project, dose response (AID 743043); assay type: functional, cell-based; conditions: IGROV-1
[19] = cells; conditions: A549

Sequence of Fructose-bisphosphate aldolase (P9WQA3 whole entry): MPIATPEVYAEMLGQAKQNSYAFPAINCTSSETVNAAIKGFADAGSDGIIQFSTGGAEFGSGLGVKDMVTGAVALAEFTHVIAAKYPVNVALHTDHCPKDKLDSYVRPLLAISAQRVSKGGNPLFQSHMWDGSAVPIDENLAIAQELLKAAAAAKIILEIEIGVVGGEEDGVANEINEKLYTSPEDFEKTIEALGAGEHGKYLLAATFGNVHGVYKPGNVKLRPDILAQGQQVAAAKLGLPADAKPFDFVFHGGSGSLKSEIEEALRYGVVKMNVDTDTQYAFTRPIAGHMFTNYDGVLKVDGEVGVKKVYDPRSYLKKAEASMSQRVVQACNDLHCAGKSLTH

O=C(c1ccccc1)c1ccc(OCC(O)CN2CCOCC2)cc1 (configuration not stated)
IC50 [1]: > 9.99 µM (inactive)

COc1ccc(NC(=O)Cn2nnc(-c3ccccc3)c2COc2ccc3ccccc3c2)cn1
IC50 [2]: > 7.72 µM (active) | IC50 [3]: > 69.5 µM (inactive)

CCCCn1nnnc1C(c1cc2ccccc2o1)N1CCN(c2ccncc2)CC1 (configuration not stated)
AC50 [4]: 32.6 µM (active) | AC50 [5]: > 52 µM (inactive) | AC50 [6]: 40.1 µM (active)

C[C@H]1CN([C@@H](C)CO)C(=O)Cc2cc(NC(=O)CCCCCC(=O)Nc3ccccc3N)ccc2O[C@H]1CN(C)Cc1ccc2c(c1)OCO2
AC50 [7]: 51.7 µM (active) | AC50 [8]: 22.8 µM (active) | AC50 [9]: 22.8 µM (active)

C[C@@H]1CN([C@H](C)CO[Si](C)(C)C(C)(C)C)C(=O)c2cc(NC(=O)C3CCCCC3)ccc2O[C@H]1CN(C)C(=O)c1ccc(Cl)cc1
AC50 [10]: > 70 µM (inactive) | AC50 [11]: > 70 µM (inactive)

COC(=O)[C@]12C[C@H](CC(=O)NCCc3ccccc3OC)C(=O)N(Cc3ccccc3)C1=C[C@H](C(C)(C)C)O[C@@H]2C
EC50 [12]: > 29.9 µM (inactive) | EC50 [13]: 2.45 µM (active) | IC50 [14]: 7.35 µM (active) | IC50 [15]: > 29.9 µM (inactive)

C[C@@H]1CN([C@H](C)CO)S(=O)(=O)c2ccc(-c3ccccc3)cc2O[C@H]1CN(C)C(=O)C1CCCCC1
AC50 [7]: > 52 µM (inactive) | AC50 [8]: 16.2 µM (active) | AC50 [9]: 16.2 µM (active)

C[C@@H]1CCCCO[C@@H](CN(C)Cc2ccc(C(F)(F)F)cc2)[C@H](C)CN([C@@H](C)CO)C(=O)c2cc(NS(=O)(=O)c3ccc(F)cc3)ccc2O1
AC50 [16]: > 70 µM (inactive) | AC50 [17]: 5.83 µM (active) | AC50 [18]: 55.8 µM (active)

O=[N+]([O-])c1cccc(Nc2c3ccccc3nc3ccccc23)c1
AC50 [19]: 46.4 µM (active)
